Laboratory results from patent publication US9115092B2, “Substituted quinazoline and pyrido-pyrimidine derivatives” (Asana Biosciences, LLC, priority 2010, dated 2015).

Assays:
PC3 cells = test: XTT assay for cell viability, PC3 cells; type: cell-based, human; settings: Homo sapiens, PC-3, cell viability
How it was run: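 PC3 cells seeded at 1000 cells/well, grown 24 h, then exposed to serial dilutions of compound for 96 h. Viability read by XTT dye at 37° C, absorbance 465 nm. EC50 from sigmoidal dose-response fit.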

[1] = test system: pS6RP(S235/236), PC3 cells; test: In-cell Western assay, pS6RP(S235/236) in PC3 cells; type: cell-based, human; settings: Homo sapiens, PC-3, In-cell Western
How it was run: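 Overnight-seeded PC3 cells were treated 2 h with serially diluted compound, then fixed and immunostained with phospho-specific primary antibodies and Eu-labelled secondary. Time-resolved Eu signal read at 615 nm (ex 340 nm), normalised by Hoechst 33258 staining (ex 355/em 460 nm); IC50 from sigmoidal dose-response fit.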

[2] = test system: pAKT(5473) (phosphorylated at serine 473), PC3 cells; test: In-cell Western assay, pAKT(5473) in PC3 cells; type: cell-based; settings: Homo sapiens, PC-3, In-cell Western, read-out: pAkt-S473
Method: (§1) Cells from human prostate cancer cell line PC3 (American Type Culture Collection (ATCC), Manassas, Va. 20108 USA) were seeded at an optimal density of 22,000 cell/well in 96-well plates containing Ham's F12K medium (90 μL) and incubated overnight. The compound dilutions were carried out in 100% DMSO followed by a dilution in the medium. Test compounds were added in serial dilutions to the wells and incubated for 2 h. The cells were washed and fixed with 4% paraformaldehyde. After incubation at room temperature for 1 h in the dark, blocking was done for 2 h at room temperature. Primary antibodies for phosphorylated (p) AKT(5473) (phosphorylated at serine 473), pAKT(T308) (phosphorylated at threonine 308) and for pS6RP(S235/236) (phosphorylated at serine 235/236) (commercially available from Cell Signaling Technology®, whose protocol was followed for the in-cell western assay, were diluted to the required concentration and added to the corresponding wells followed by overnight incubation at 4° C. Eu-labeled rabbit (PE) (Perkin-Elmer USA catalog #AD0106) secondary antibody was added and incubated for 2 h at room temperature. Delfia® enhancement solution (cat #1244-105, Perkin Elmer USA) was subsequently added to the plate before taking the reading at 615 nm with excitation wavelength of 340 nm, after which 0.5 μg/mL of Hoechst® 33258 dye (Catalog #86140-5, Sigma) was added to the plate and fluorescence emission was read at 460 nm with 355 nm excitation, to evaluate the correction factor. IC50 values were calculated using a sigmoidal dose-response curve fit in GraphPad Prism® v5 software.

mTOR kinase = biological target: T1, mTOR kinase (Homo sapiens, UniProt P42345); test: mTOR kinase TR-FRET assay; type: biochemical; settings: read-out: mTO R
T1 construct: purchased Millipore, USA
How it was run: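 TR-FRET read-out (340 nm excitation, 615/665 nm emission) of Thr389 phosphorylation of a ULight-labeled p70 S6K peptide (50 nM) by mTOR, 20 μM ATP, 60 min room temperature after 60 min compound preincubation. Buffer HEPES pH 7.5 with MnCl2, EGTA; IC50 by sigmoidal dose-response.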

[3] = test system: pAKT(T308) (phosphorylated at threonine 308), PC3 cells; test: In-cell Western assay, pAKT(T308) in PC3 cells; type: cell-based; settings: Homo sapiens, PC-3, In-cell Western
Method: as §1

[4] = biological target: T2, PI3Kα (wild-type), P110/P85α (Homo sapiens, UniProt P42336); test: PI3 Kinase TR-FRET assay, PI3Kα (wild-type); type: biochemical
T2 construct: made in house; host or cells: SF9 insect cells
T2 sequence (P42336 whole entry): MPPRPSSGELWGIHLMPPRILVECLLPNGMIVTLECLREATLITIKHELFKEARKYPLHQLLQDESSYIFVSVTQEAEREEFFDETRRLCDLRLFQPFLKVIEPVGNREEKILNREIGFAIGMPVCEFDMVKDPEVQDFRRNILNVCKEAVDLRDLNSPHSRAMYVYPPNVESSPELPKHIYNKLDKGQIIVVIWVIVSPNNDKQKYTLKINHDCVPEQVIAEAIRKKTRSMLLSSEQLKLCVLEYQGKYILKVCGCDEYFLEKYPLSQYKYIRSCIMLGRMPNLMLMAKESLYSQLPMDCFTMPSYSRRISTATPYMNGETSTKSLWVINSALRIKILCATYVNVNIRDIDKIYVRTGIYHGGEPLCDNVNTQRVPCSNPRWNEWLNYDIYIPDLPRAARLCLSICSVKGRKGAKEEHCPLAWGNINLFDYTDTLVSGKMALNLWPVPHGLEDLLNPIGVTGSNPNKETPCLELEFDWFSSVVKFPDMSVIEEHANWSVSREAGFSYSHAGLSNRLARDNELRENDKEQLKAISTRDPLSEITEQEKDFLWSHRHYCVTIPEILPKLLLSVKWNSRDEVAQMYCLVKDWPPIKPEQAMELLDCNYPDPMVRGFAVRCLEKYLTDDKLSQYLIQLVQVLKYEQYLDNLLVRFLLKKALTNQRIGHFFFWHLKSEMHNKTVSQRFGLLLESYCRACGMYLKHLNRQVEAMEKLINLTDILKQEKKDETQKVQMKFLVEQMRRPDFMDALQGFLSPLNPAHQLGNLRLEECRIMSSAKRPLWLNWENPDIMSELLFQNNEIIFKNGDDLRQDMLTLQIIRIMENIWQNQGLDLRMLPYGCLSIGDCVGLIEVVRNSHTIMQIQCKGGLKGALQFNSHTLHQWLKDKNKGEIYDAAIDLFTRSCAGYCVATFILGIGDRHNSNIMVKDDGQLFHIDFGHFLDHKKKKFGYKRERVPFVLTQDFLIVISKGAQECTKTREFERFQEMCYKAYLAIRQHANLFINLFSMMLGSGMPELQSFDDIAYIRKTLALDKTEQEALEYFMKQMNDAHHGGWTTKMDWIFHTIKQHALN
T2 sequence (P27986 whole entry partner): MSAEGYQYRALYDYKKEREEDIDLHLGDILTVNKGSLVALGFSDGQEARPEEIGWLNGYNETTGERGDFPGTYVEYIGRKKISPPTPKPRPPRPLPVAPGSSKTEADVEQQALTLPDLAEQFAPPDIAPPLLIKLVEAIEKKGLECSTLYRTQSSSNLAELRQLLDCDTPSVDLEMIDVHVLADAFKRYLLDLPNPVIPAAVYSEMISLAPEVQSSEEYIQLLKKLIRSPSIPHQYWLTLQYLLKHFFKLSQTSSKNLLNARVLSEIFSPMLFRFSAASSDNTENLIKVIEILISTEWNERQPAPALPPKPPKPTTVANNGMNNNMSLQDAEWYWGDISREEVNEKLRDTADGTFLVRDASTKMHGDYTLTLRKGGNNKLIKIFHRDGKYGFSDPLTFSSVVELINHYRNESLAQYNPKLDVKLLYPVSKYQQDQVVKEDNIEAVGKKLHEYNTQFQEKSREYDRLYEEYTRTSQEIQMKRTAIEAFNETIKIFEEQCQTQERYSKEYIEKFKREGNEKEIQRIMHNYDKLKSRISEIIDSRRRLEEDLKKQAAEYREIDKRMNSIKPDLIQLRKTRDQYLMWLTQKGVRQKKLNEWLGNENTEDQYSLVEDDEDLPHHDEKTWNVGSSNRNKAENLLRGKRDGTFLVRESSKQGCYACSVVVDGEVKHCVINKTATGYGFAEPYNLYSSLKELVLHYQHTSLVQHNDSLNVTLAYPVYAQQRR
How it was run: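 TR-FRET read-out of PIP3 formation via biotin-PIP3 displacement (665/615 nm ratio) gave IC50 curves. Enzyme: 5 ng wild-type P110/P85α from Sf9 cells, 60 min RT with compound and PIP2 (MgCl2 40 mM, DTT 5 mM), then 30 min RT kinase reaction at 10 μM ATP and 10 μM PIP2.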

| IC50 (PC3 cells) | IC50 [1] | IC50 [2] | IC50 (mTOR kinase) | IC50 [3] | IC50 [4] | SMILES |
| --- | --- | --- | --- | --- | --- | --- |
| < 100 nM | < 100 nM | 100 to 500 nM | < 50 nM | 100 to 500 nM | < 50 nM | CN(C)C(=O)c1ccc(NC(=O)Nc2ccc(-c3nc(N4CCOCC4)c4ccc(-c5cccnc5)cc4n3)cc2)cc1 [Example 24, N,N-dimethyl-4-{3-[4-(4-morpholin-4-yl-7-pyridin-3-yl-quinazolin-2-yl)-phenyl]-ureido}-benzamide] |
| < 100 nM | 100 to 500 nM | < 100 nM | < 50 nM | 100 to 500 nM | < 50 nM | CN(C)C(=O)c1ccc(NC(=O)Nc2ccc(-c3nc(N4CCOCC4)c4ncc(-c5cnn(C)c5)cc4n3)cc2)cc1 [Example 42, N,N-dimethyl-4-(3-{4-[7-(1-methyl-1H-pyrazol-4-yl)-4-morpholin-4-yl-pyrido[3,2-d]pyrimidin-2-yl]-phenyl}-ureido)-benzamide] |
| 201 to 10000 nM |  | 501 to 5000 nM | < 50 nM |  | < 50 nM | CN(C)C(=O)c1ccc(NC(=O)Nc2ccc(-c3nc(N4CCOCC4)c4ccc(-c5ccccn5)cc4n3)c(F)c2)cc1 [Example 268, 4-(3-(3-fluoro-4-(4-morpholino-7-(pyridin-2-yl)quinazolin-2-yl)phenyl)ureido)-N,N-dimethyl-benzamide] |
| 201 to 10000 nM |  | 501 to 5000 nM | < 50 nM |  | < 50 nM | CN(C)C(=O)c1ccc(NC(=O)Nc2ccc(-c3nc(N4CCOCC4)c4ccc(-c5ccccn5)cc4n3)cc2)cc1F [Example 267, 2-fluoro-N,N-dimethyl-4-(3-(4-(4-morpholino-7-(pyridin-2-yl)quinazolin-2-yl)phenyl)ureido)-benzamide] |
| < 100 nM |  | < 100 nM | 201 to 10000 nM |  | < 50 nM | CN(C)C(=O)c1ccc(NC(=O)Nc2ccc(-c3nc(N4CCOCC4)c4ccc(-c5ccco5)cc4n3)cn2)cc1 [Example 159, 4-(3-(5-(7-(furan-2-yl)-4-morpholino-quinazolin-2-yl)pyridin-2-yl)ureido)-N,N-dimethyl-benzamide] |
| < 100 nM | < 100 nM | < 100 nM | < 50 nM | 100 to 500 nM | < 50 nM | CN(C)C(=O)c1ccc(NC(=O)Nc2ccc(-c3nc(N4CCOCC4)c4ncc(-c5cccnc5)cc4n3)cc2)cc1 [Example 46, N,N-dimethyl-4-{3-[4-(4-morpholin-4-yl-7-pyridin-3-yl-pyrido[3,2-d]pyrimidin-2-yl)-phenyl]-ureido}-benzamide] |
| < 100 nM | < 100 nM | 100 to 500 nM | < 50 nM | 100 to 500 nM | < 50 nM | CN1CCN(C(=O)c2ccc(NC(=O)Nc3ccc(-c4nc(N5CCOCC5)c5ccc(-c6cccnc6)cc5n4)cc3)cc2)CC1 [Example 33, 1-[4-(4-methyl-piperazine-1-carbonyl)-phenyl]-3-[4-(4-morpholin-4-yl-7-pyridin-3-yl-quinazolin-2-yl)-phenyl]-urea] |
| < 100 nM | < 100 nM | 100 to 500 nM | < 50 nM | 100 to 500 nM | < 50 nM | CN(C)C(=O)c1ccc(NC(=O)Nc2ccc(-c3nc(N4CCOCC4)c4ccc(-c5cnn(C)c5)cc4n3)cc2)cc1 [Example 22, N,N-dimethyl-4-(3-{4-[7-(1-methyl-1H-pyrazol-4-yl)-4-morpholin-4-yl-quinazolin-2-yl]-phenyl}-ureido)-benzamide] |
| 100 to 500 nM | 100 to 500 nM |  | < 50 nM | 501 to 5000 nM | < 50 nM | CC(=O)Nc1ccc(NC(=O)Nc2ccc(-c3nc(N4CCOCC4)c4ccc(-c5cncnc5)cc4n3)cc2)cc1 [Example 291, N-(4-(3-(4-(4-morpholino-7-(pyrimidin-5-yl)quinazolin-2-yl)phenyl)ureido)phenyl)-acetamide] |
| 100 to 500 nM | 100 to 500 nM | 100 to 500 nM | < 50 nM | 100 to 500 nM | < 50 nM | CNC(=O)c1ccc(NC(=O)Nc2ccc(-c3nc(N4CCOCC4)c4ccc(-c5cccc(S(C)(=O)=O)c5)cc4n3)cc2)cc1 [Example 20, 4-(3-{4-[7-(3-methanesulfonyl-phenyl)-4-morpholin-4-yl-quinazolin-2-yl]-phenyl}-ureido)-N-methyl-benzamide] |
| < 100 nM | < 100 nM | 100 to 500 nM | < 50 nM | 100 to 500 nM | < 50 nM | CN(C)C(=O)c1ccc(NC(=O)Nc2ccc(-c3nc(N4CCOCC4)c4cc(F)c(-c5cnn(C)c5)cc4n3)cc2)cc1 [Example 35, 4-(3-{4-[6-Fluoro-7-(1-methyl-1H-pyrazol-4-yl)-4-morpholin-4-yl-quinazolin-2-yl]-phenyl}-ureido)-N,N-dimethyl-benzamide] |
| < 100 nM | < 100 nM | 100 to 500 nM | < 50 nM | 100 to 500 nM | < 50 nM | CC(=O)Nc1cccc(-c2ccc3c(N4CCOCC4)nc(-c4ccc(NC(=O)Nc5ccc(C(=O)N(C)C)cc5)cc4)nc3c2)c1 [Example 49, 4-(3-{4-[7-(3-acetylamino-phenyl)-4-morpholin-4-yl-quinazolin-2-yl]-phenyl}-ureido)-N,N-dimethyl-benzamide] |
| < 100 nM |  | 501 to 5000 nM | 50 to 200 nM |  | < 50 nM | CN(C)C(=O)c1ccc(NC(=O)Nc2ccc(-c3nc(N4CCOCC4)c4ccc(-c5ccco5)cc4n3)cc2)c(F)c1 [Example 160, 3-fluoro-4-(3-(4-(7-(furan-2-yl)-4-morpholino-quinazolin-2-yl)phenyl)ureido)-N,N-dimethyl-benzamide] |
| < 100 nM | < 100 nM | < 100 nM | < 50 nM | < 100 nM | < 50 nM | CN(C)CCN(C)C(=O)c1ccc(NC(=O)Nc2ccc(-c3nc(N4CCOCC4)c4ccc(-c5cncnc5)cc4n3)cc2)cc1 [Example 44, N-(2-dimethylamino-ethyl)-N-methyl-4-{3-[4-(4-morpholin-4-yl-7-pyrimidin-5-yl-quinazolin-2-yl)-phenyl]-ureido}-benzamide] |
| 201 to 10000 nM | 201 to 10000 nM | 501 to 5000 nM | < 50 nM |  | < 50 nM | CN(C)C(=O)c1ccc(NC(=O)Nc2ccc(-c3nc(N4CCOCC4)c4ccc(-c5cccc(S(C)(=O)=O)c5)cc4n3)cc2F)cc1 [Example 118, 4-(3-(2-fluoro-4-(7-(3-(methylsulfonyl)phenyl)-4-morpholino-quinazolin-2-yl)phenyl)ureido)-N,N-dimethyl-benzamide] |
| 201 to 10000 nM |  | < 100 nM | < 50 nM |  | < 50 nM | CN(C)C(=O)c1ccc(NC(=O)Nc2ccc(-c3nc(N4CCOCC4)c4ccc(-c5ccccn5)cc4n3)cc2)cc1 [Example 155, N,N-dimethyl-4-(3-(4-(4-morpholino-7-(pyridin-2-yl)quinazolin-2-yl)phenyl)ureido)-benzamide] |
| 201 to 10000 nM | 201 to 10000 nM |  | 50 to 200 nM |  | 50 to 200 nM | CNC(=O)c1ccc(NC(=O)Nc2ccc(-c3nc(N4CCOCC4)c4ccc(-c5cncnc5)cc4n3)cc2F)cc1 [Example 215, 4-(3-(2-fluoro-4-(4-morpholino-7-(pyrimidin-5-yl)quinazolin-2-yl)phenyl)ureido)-N-methyl-benzamide] |
| 201 to 10000 nM | 201 to 10000 nM |  | < 50 nM |  | < 50 nM | CN(C)C(=O)c1ccc(NC(=O)Nc2ccc(-c3nc(N4CCOCC4)c4ncc(-c5cnc(N)nc5)cc4n3)cc2F)cc1 [Example 127, 4-(3-(4-(7-(2-aminopyrimidin-5-yl)-4-morpholinopyrido[3,2-d]pyrimidin-2-yl)-2-fluorophenyl)ureido)-N,N-dimethyl-benzamide] |
